In ChEMBL document CHEMBL4011590, “Structure-activity relationship studies on 3,5-dinitrophenyl tetrazoles as antitubercular agents” (Eur J Med Chem, 2017):
≈ marks a conversion by molar mass, not a printed value.

How the values were obtained:
Format in all cases: functional
Klebsiella pneumoniae [1] = assay: Antibacterial activity against Klebsiella pneumoniae HK11750/08 after 48 hrs by broth microdilution method; conditions: HK11750/08, 48 h
[2] = system: Staphylococcus epidermidis; assay: Antibacterial activity against Staphylococcus epidermidis HK6966/08 after 24 hrs by broth microdilution method; conditions: HK6966/08, 24 h
Aspergillus fumigatus [3] = assay: Antifungal activity against Aspergillus fumigatus 231 after 24 hrs by broth microdilution method; conditions: Aspergillus fumigatus, 231, 24 h
Enterococcus sp. [4] = assay: Antibacterial activity against Enterococcus sp. HK14365/08 after 24 hrs by broth microdilution method; conditions: HK14365/08, 24 h
Trichosporon asahii [5] = assay: Antifungal activity against Trichosporon asahii 1188 after 48 hrs by broth microdilution method; conditions: Trichosporon asahii, 1188, 48 h
Staphylococcus aureus [6] = assay: Antibacterial activity against methicillin-resistant Staphylococcus aureus HK5996/08 after 24 hrs by broth microdilution method; conditions: HK5996/08, 24 h
Mycobacterium avium [7] = assay: Antimycobacterial activity against Mycobacterium avium CNCTC My 330/80 after 14 days by micromethod; conditions: CNCTC My 330/80, 336 h
Trichosporon asahii [8] = assay: Antifungal activity against Trichosporon asahii 1188 after 24 hrs by broth microdilution method; conditions: Trichosporon asahii, 1188, 24 h
Staphylococcus aureus [9] = assay: Antibacterial activity against Staphylococcus aureus ATCC 6538 after 48 hrs by broth microdilution method; conditions: ATCC 6538, 48 h
Lichtheimia corymbifera [10] = assay: Antifungal activity against Absidia corymbifera 272 after 48 hrs by broth microdilution method; conditions: Lichtheimia corymbifera, 272, 48 h
Pseudomonas aeruginosa [11] = assay: Antibacterial activity against Pseudomonas aeruginosa ATCC 9027 after 24 hrs by broth microdilution method
[12] = system: Mycobacterium tuberculosis; assay: Antimycobacterial activity against Mycobacterium tuberculosis H37Rv CNCTC My 331/88 after 21 days by micromethod; conditions: H37Rv CNCTC My 331/88, 504 h
Pseudomonas aeruginosa [13] = assay: Antibacterial activity against Pseudomonas aeruginosa ATCC 9027 after 48 hrs by broth microdilution method; conditions: ATCC 9027, 48 h
Mycobacterium avium [14] = assay: Antimycobacterial activity against Mycobacterium avium CNCTC My 330/80 after 21 days by micromethod; conditions: CNCTC My 330/80, 504 h
Nakaseomyces glabratus [15] = assay: Antifungal activity against Candida glabrata 20/I after 48 hrs by broth microdilution method
Klebsiella pneumoniae [16] = assay: Antibacterial activity against extended spectrum beta-lactamase producing Klebsiella pneumoniae HK14368/08 after 24 hrs by broth microdilution method
Mycobacterium kansasii [17] = assay: Antimycobacterial activity against Mycobacterium kansasii isolate 6509/96 after 7 days by micromethod; conditions: isolate 6509/96, 168 h
Candida albicans [18] = assay: Antifungal activity against Candida albicans ATCC 44859 after 48 hrs by broth microdilution method; conditions: ATCC 44859, 48 h
Klebsiella pneumoniae [19] = assay: Antibacterial activity against Klebsiella pneumoniae HK11750/08 after 24 hrs by broth microdilution method
Escherichia coli [20] = assay: Antibacterial activity against Escherichia coli ATCC 8739 after 48 hrs by broth microdilution method; conditions: ATCC 8739, 48 h
Escherichia coli [21] = assay: Antibacterial activity against Escherichia coli ATCC 8739 after 24 hrs by broth microdilution method
Candida albicans [22] = assay: Antifungal activity against Candida albicans ATCC 44859 after 24 hrs by broth microdilution method; conditions: ATCC 44859, 24 h
Klebsiella pneumoniae [23] = assay: Antibacterial activity against extended spectrum beta-lactamase producing Klebsiella pneumoniae HK14368/08 after 48 hrs by broth microdilution method; conditions: HK14368/08, 48 h
[24] = system: Mycobacterium tuberculosis; assay: Antimycobacterial activity against Mycobacterium tuberculosis H37Rv CNCTC My 331/88 after 14 days by micromethod; conditions: H37Rv CNCTC My 331/88, 336 h
Enterococcus sp. [25] = assay: Antibacterial activity against Enterococcus sp. HK14365/08 after 48 hrs by broth microdilution method; conditions: HK14365/08, 48 h
[26] = system: Staphylococcus epidermidis; assay: Antibacterial activity against Staphylococcus epidermidis HK6966/08 after 48 hrs by broth microdilution method; conditions: HK6966/08, 48 h
Aspergillus fumigatus [27] = assay: Antifungal activity against Aspergillus fumigatus 231 after 48 hrs by broth microdilution method; conditions: Aspergillus fumigatus, 231, 48 h
Staphylococcus aureus [28] = assay: Antibacterial activity against Staphylococcus aureus ATCC 6538 after 24 hrs by broth microdilution method; conditions: ATCC 6538, 24 h
[29] = system: Trichophyton mentagrophytes; assay: Antifungal activity against Trichophyton mentagrophytes 445 after 72 hrs by broth microdilution method; conditions: Trichophyton mentagrophytes, 445, 72 h
Mycobacterium kansasii [30] = assay: Antimycobacterial activity against Mycobacterium kansasii CNCTC My 235/80 after 7 days by micromethod; conditions: CNCTC My 235/80, 168 h
Candida tropicalis [31] = assay: Antifungal activity against Candida tropicalis 156 after 24 hrs by broth microdilution method; conditions: Candida tropicalis, 156, 24 h
Candida tropicalis [32] = assay: Antifungal activity against Candida tropicalis 156 after 48 hrs by broth microdilution method; conditions: Candida tropicalis, 156, 48 h
Mycobacterium kansasii [33] = assay: Antimycobacterial activity against Mycobacterium kansasii CNCTC My 235/80 after 14 days by micromethod; conditions: CNCTC My 235/80, 336 h
Lichtheimia corymbifera [34] = assay: Antifungal activity against Absidia corymbifera 272 after 24 hrs by broth microdilution method; conditions: Lichtheimia corymbifera, 272, 24 h
Mycobacterium kansasii [35] = assay: Antimycobacterial activity against Mycobacterium kansasii isolate 6509/96 after 21 days by micromethod; conditions: isolate 6509/96, 504 h
[36] = system: Trichophyton mentagrophytes; assay: Antifungal activity against Trichophyton mentagrophytes 445 after 120 hrs by broth microdilution method; conditions: Trichophyton mentagrophytes, 445, 120 h
Staphylococcus aureus [37] = assay: Antibacterial activity against methicillin-resistant Staphylococcus aureus HK5996/08 after 48 hrs by broth microdilution method; conditions: HK5996/08, 48 h
Mycobacterium kansasii [38] = assay: Antimycobacterial activity against Mycobacterium kansasii isolate 6509/96 after 14 days by micromethod; conditions: isolate 6509/96, 336 h
Pichia kudriavzevii [39] = assay: Antifungal activity against Candida krusei E28 after 24 hrs by broth microdilution method; conditions: E28, 24 h
Nakaseomyces glabratus [40] = assay: Antifungal activity against Candida glabrata 20/I after 24 hrs by broth microdilution method
Mycobacterium kansasii [41] = assay: Antimycobacterial activity against Mycobacterium kansasii CNCTC My 235/80 after 21 days by micromethod; conditions: CNCTC My 235/80, 504 h
Pichia kudriavzevii [42] = assay: Antifungal activity against Candida krusei E28 after 48 hrs by broth microdilution method; conditions: E28, 48 h

Cn1nnnc1SCn1nnc(-c2cc([N+](=O)[O-])cc([N+](=O)[O-])c2)n1
MIC (Klebsiella pneumoniae [1]): > 500 µM
MIC [2]: 125 µM (≈ 45.5 µg/mL)
MIC (Aspergillus fumigatus [3]): > 500 µM
MIC (Enterococcus sp. [4]): 500 µM (≈ 182 µg/mL)
MIC (Trichosporon asahii [5]): > 500 µM
MIC (Staphylococcus aureus [6]): > 500 µM
MIC99 (Mycobacterium avium [7]): 32 µM (≈ 11.7 µg/mL)
MIC (Trichosporon asahii [8]): > 500 µM
MIC (Staphylococcus aureus [9]): > 500 µM
MIC (Lichtheimia corymbifera [10]): > 500 µM
MIC (Pseudomonas aeruginosa [11]; ATCC 9027, 24 h): > 500 µM
MIC99 [12]: 2 µM (≈ 0.729 µg/mL)
MIC (Pseudomonas aeruginosa [13]): > 500 µM
MIC99 (Mycobacterium avium [14]): 32 µM (≈ 11.7 µg/mL)
MIC (Nakaseomyces glabratus [15]): > 500 µM
MIC (Klebsiella pneumoniae [16]; HK14368/08, 24 h): > 500 µM
MIC99 (Mycobacterium kansasii [17]): 16 µM (≈ 5.83 µg/mL)
MIC (Candida albicans [18]): > 500 µM
MIC (Klebsiella pneumoniae [19]; HK11750/08, 24 h): > 500 µM
MIC (Escherichia coli [20]): > 500 µM
MIC (Escherichia coli [21]; ATCC 8739, 24 h): > 500 µM
MIC (Candida albicans [22]): > 500 µM
MIC (Klebsiella pneumoniae [23]): > 500 µM
MIC99 [24]: 2 µM (≈ 0.729 µg/mL)
MIC (Enterococcus sp. [25]): 500 µM (≈ 182 µg/mL)
MIC [26]: 125 µM (≈ 45.5 µg/mL)
MIC (Aspergillus fumigatus [27]): > 500 µM
MIC (Staphylococcus aureus [28]): > 500 µM
MIC [29]: > 500 µM
MIC99 (Mycobacterium kansasii [30]): 16 µM (≈ 5.83 µg/mL)
MIC (Candida tropicalis [31]): > 500 µM
MIC (Candida tropicalis [32]): > 500 µM
MIC99 (Mycobacterium kansasii [33]): 32 µM (≈ 11.7 µg/mL)
MIC (Lichtheimia corymbifera [34]): > 500 µM
MIC99 (Mycobacterium kansasii [35]): 32 µM (≈ 11.7 µg/mL)
MIC [36]: > 500 µM
MIC (Staphylococcus aureus [37]): > 500 µM
MIC99 (Mycobacterium kansasii [38]): 32 µM (≈ 11.7 µg/mL)
MIC (Pichia kudriavzevii [39]): > 500 µM
MIC (Nakaseomyces glabratus [40]): > 500 µM
MIC99 (Mycobacterium kansasii [41]): 32 µM (≈ 11.7 µg/mL)
MIC (Pichia kudriavzevii [42]): > 500 µM

GENTAMICIN
MIC (Pseudomonas aeruginosa [11]): 1 µM
MIC (Klebsiella pneumoniae [16]): 0.26 µM
MIC (Klebsiella pneumoniae [19]): 0.26 µM
MIC (Escherichia coli [21]): 0.26 µM

CN[C@H](CC(C)C)C(=O)N[C@H]1C(=O)N[C@@H](CC(N)=O)C(=O)N[C@H]2C(=O)N[C@H]3C(=O)N[C@H](C(=O)N[C@H](C(=O)O)c4cc(O)cc(O)c4-c4cc3ccc4O)[C@H](O)c3ccc(c(Cl)c3)Oc3cc2cc(c3O[C@@H]2O[C@H](CO)[C@@H](O)[C@H](O)[C@H]2O[C@H]2C[C@](C)(N)[C@H](O)[C@H](C)O2)Oc2ccc(cc2Cl)[C@H]1O [VANCOMYCIN]
MIC [2]: 0.35 µM (≈ 0.507 µg/mL)
MIC (Enterococcus sp. [4]): 0.7 µM (≈ 1.01 µg/mL)
MIC (Staphylococcus aureus [6]): 0.35 µM (≈ 0.507 µg/mL)
MIC (Staphylococcus aureus [28]): 0.35 µM (≈ 0.507 µg/mL)

C[C@@H]1[C@H](O)[C@@H](C)/C=C/C=C/C=C/C=C/C=C/C=C/C=C/[C@H](O[C@@H]2O[C@H](C)[C@@H](O)[C@H](N)[C@@H]2O)C[C@@H]2O[C@](O)(C[C@@H](O)C[C@@H](O)[C@H](O)CC[C@@H](O)C[C@@H](O)CC(=O)O[C@H]1C)C[C@H](O)[C@H]2C(=O)O [AMPHOTERICIN B]
MIC (Aspergillus fumigatus [3]): 0.54 µM (≈ 0.499 µg/mL)
MIC (Trichosporon asahii [8]): 0.27 µM (≈ 0.25 µg/mL)
MIC (Candida albicans [22]): 0.54 µM (≈ 0.499 µg/mL)
MIC [29]: 0.54 µM (≈ 0.499 µg/mL)
MIC (Candida tropicalis [31]): 0.54 µM (≈ 0.499 µg/mL)
MIC (Lichtheimia corymbifera [34]): 1 µM (≈ 0.924 µg/mL)
MIC (Pichia kudriavzevii [39]): 1 µM (≈ 0.924 µg/mL)
MIC (Nakaseomyces glabratus [40]): 0.54 µM (≈ 0.499 µg/mL)
